Laboratory results published in PubChem BioAssay AID2060887 (Molecular Pharmacology Branch, DTP, NCI, 2025).

Test system: 782815-120-R-J1-PDC complex spheroid viability
Test: Anticancer human tumor 782815-120-R-J1-PDC patient-derived colon adenocarcinoma cell line growth inhibition [RAS]
Conditions: for IC50: curve of first compound; for viability, T/C: stronger effect = lower value
In short: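 Multi-cell-type spheroids: tumor cells plus HUVEC endothelial cells and mesenchymal stem cells. RAS-pathway inhibitors were combined with targeted agents, each dosed in half-log steps down from clinical Cmax, or from 10 microM when Cmax was unknown.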
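Also: spheroids exposed to compounds for 7 days before reading.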
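For viability, T/C in this document: 100% = DMSO vehicle control viability.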

## CC1(C)CCC(Nc2ncc(C(F)(F)F)c(-c3c[nH]c4c(P(C)(C)=O)c(C#N)ccc34)n2)CN1 (centres undefined) + CCn1c(-c2cc(N3CCN(C)CC3)cnc2C(C)OC)c2c3cc(ccc31)-c1csc(n1)CC(NC(=O)C1CC1C)C(=O)N1CCCC(N1)C(=O)OCC(C)(C)C2
Second compound 0.000949 µM
  IC50: 14.6 nM
Second compound 0.003 µM
  IC50: 2.4 nM
Second compound 0.00949 µM
  IC50: < 0.949 nM
Second compound 0.03 µM
  IC50: < 0.949 nM
Second compound 0.0949 µM
  IC50: < 0.949 nM
Second compound 0.3 µM
  IC50: < 0.949 nM
Second compound 0.000949 µM, first compound 0.000949 µM
  viability, T/C: 65.1%
Second compound 0.000949 µM, first compound 0.003 µM
  viability, T/C: 61.3%
Second compound 0.000949 µM, first compound 0.00949 µM
  viability, T/C: 54.6%
Second compound 0.000949 µM, first compound 0.03 µM
  viability, T/C: 43%
Second compound 0.000949 µM, first compound 0.0949 µM
  viability, T/C: 36.9%
Second compound 0.000949 µM, first compound 0.3 µM
  viability, T/C: 39.2%
Second compound 0.003 µM, first compound 0.000949 µM
  viability, T/C: 52.9%
Second compound 0.003 µM, first compound 0.003 µM
  viability, T/C: 54%
Second compound 0.003 µM, first compound 0.00949 µM
  viability, T/C: 44.6%
Second compound 0.003 µM, first compound 0.03 µM
  viability, T/C: 31.3%
Second compound 0.003 µM, first compound 0.0949 µM
  viability, T/C: 34.4%
Second compound 0.003 µM, first compound 0.3 µM
  viability, T/C: 34.2%
Second compound 0.00949 µM, first compound 0.000949 µM
  viability, T/C: 30.3%
Second compound 0.00949 µM, first compound 0.003 µM
  viability, T/C: 30.4%
Second compound 0.00949 µM, first compound 0.00949 µM
  viability, T/C: 25.7%
Second compound 0.00949 µM, first compound 0.03 µM
  viability, T/C: 22.8%
Second compound 0.00949 µM, first compound 0.0949 µM
  viability, T/C: 19.2%
Second compound 0.00949 µM, first compound 0.3 µM
  viability, T/C: 23.6%
Second compound 0.03 µM, first compound 0.000949 µM
  viability, T/C: 18.7%
Second compound 0.03 µM, first compound 0.003 µM
  viability, T/C: 18.3%
Second compound 0.03 µM, first compound 0.00949 µM
  viability, T/C: 15.3%
Second compound 0.03 µM, first compound 0.03 µM
  viability, T/C: 14%
Second compound 0.03 µM, first compound 0.0949 µM
  viability, T/C: 13%
Second compound 0.03 µM, first compound 0.3 µM
  viability, T/C: 13.6%
Second compound 0.0949 µM, first compound 0.000949 µM
  viability, T/C: 15.6%
Second compound 0.0949 µM, first compound 0.003 µM
  viability, T/C: 15.6%
Second compound 0.0949 µM, first compound 0.00949 µM
  viability, T/C: 9.83%
Second compound 0.0949 µM, first compound 0.03 µM
  viability, T/C: 10.4%
Second compound 0.0949 µM, first compound 0.0949 µM
  viability, T/C: 10.7%
Second compound 0.0949 µM, first compound 0.3 µM
  viability, T/C: 8.29%
Second compound 0.3 µM, first compound 0.000949 µM
  viability, T/C: 16.3%
Second compound 0.3 µM, first compound 0.003 µM
  viability, T/C: 13.9%
Second compound 0.3 µM, first compound 0.00949 µM
  viability, T/C: 12.5%
Second compound 0.3 µM, first compound 0.03 µM
  viability, T/C: 9.35%
Second compound 0.3 µM, first compound 0.0949 µM
  viability, T/C: 7.69%
Second compound 0.3 µM, first compound 0.3 µM
  viability, T/C: 7.08%

## CC(C)n1nc(-c2ccc3oc(N)nc3c2)c2c(N)ncnc21 + CCn1c(-c2cccnc2C(C)OC)c2c3cc(ccc31)N1CCOC(CC(NC(=O)C(C(C)C)N(C)C(=O)C3(F)CCN(C(=O)C#CC(C)(C)N(C)C)CC3)C(=O)N3CCCC(N3)C(=O)OCC(C)(C)C2)C1
Second compound 0.000949 µM
  IC50: > 100 nM
Second compound 0.003 µM
  IC50: > 100 nM
Second compound 0.00949 µM
  IC50: > 100 nM
Second compound 0.03 µM
  IC50: > 100 nM
Second compound 0.0949 µM
  IC50: > 100 nM
Second compound 0.3 µM
  IC50: > 100 nM
Second compound 0.000949 µM, first compound 0.000316 µM
  viability, T/C: 88.2%
Second compound 0.000949 µM, first compound 0.001 µM
  viability, T/C: 90.7%
Second compound 0.000949 µM, first compound 0.00316 µM
  viability, T/C: 93%
Second compound 0.000949 µM, first compound 0.01 µM
  viability, T/C: 88.2%
Second compound 0.000949 µM, first compound 0.0316 µM
  viability, T/C: 88.1%
Second compound 0.000949 µM, first compound 0.1 µM
  viability, T/C: 76.3%
Second compound 0.003 µM, first compound 0.000316 µM
  viability, T/C: 91.5%
Second compound 0.003 µM, first compound 0.001 µM
  viability, T/C: 107%
Second compound 0.003 µM, first compound 0.00316 µM
  viability, T/C: 91.7%
Second compound 0.003 µM, first compound 0.01 µM
  viability, T/C: 86.4%
Second compound 0.003 µM, first compound 0.0316 µM
  viability, T/C: 84.8%
Second compound 0.003 µM, first compound 0.1 µM
  viability, T/C: 78.2%
Second compound 0.00949 µM, first compound 0.000316 µM
  viability, T/C: 94.8%
Second compound 0.00949 µM, first compound 0.001 µM
  viability, T/C: 102%
Second compound 0.00949 µM, first compound 0.00316 µM
  viability, T/C: 87.3%
Second compound 0.00949 µM, first compound 0.01 µM
  viability, T/C: 94.3%
Second compound 0.00949 µM, first compound 0.0316 µM
  viability, T/C: 87.3%
Second compound 0.00949 µM, first compound 0.1 µM
  viability, T/C: 70.7%
Second compound 0.03 µM, first compound 0.000316 µM
  viability, T/C: 87%
Second compound 0.03 µM, first compound 0.001 µM
  viability, T/C: 99.9%
Second compound 0.03 µM, first compound 0.00316 µM
  viability, T/C: 94.1%
Second compound 0.03 µM, first compound 0.01 µM
  viability, T/C: 93.6%
Second compound 0.03 µM, first compound 0.0316 µM
  viability, T/C: 106%
Second compound 0.03 µM, first compound 0.1 µM
  viability, T/C: 70.5%
Second compound 0.0949 µM, first compound 0.000316 µM
  viability, T/C: 87.7%
Second compound 0.0949 µM, first compound 0.001 µM
  viability, T/C: 95.2%
Second compound 0.0949 µM, first compound 0.00316 µM
  viability, T/C: 99.6%
Second compound 0.0949 µM, first compound 0.01 µM
  viability, T/C: 83.7%
Second compound 0.0949 µM, first compound 0.0316 µM
  viability, T/C: 87.8%
Second compound 0.0949 µM, first compound 0.1 µM
  viability, T/C: 78.8%
Second compound 0.3 µM, first compound 0.000316 µM
  viability, T/C: 90.9%
Second compound 0.3 µM, first compound 0.001 µM
  viability, T/C: 92.1%
Second compound 0.3 µM, first compound 0.00316 µM
  viability, T/C: 86.1%
Second compound 0.3 µM, first compound 0.01 µM
  viability, T/C: 90.2%
Second compound 0.3 µM, first compound 0.0316 µM
  viability, T/C: 90.6%
Second compound 0.3 µM, first compound 0.1 µM
  viability, T/C: 69.2%
